What was measured:
Assay type in all cases: cell-based, human
CD34+ADAM8+ cells = test: Cell viability assay with GM6001, CD34+ADAM8+ cells; conditions: GM6001 2.5 μM; FIG. 20
Description: (§1) The cell viability assay and apoptosis assay were carried out according to the method described in Ma, L. et al., Sci. Transl. Med. 6, 252ral21(2014).
(§2) CD34+ADAM8+ cells and CD34+ADAM8− cells were used for a cell viability assay in the absence of GM6001 (Merck Millipore) and in the presence of GM6001 at specific concentrations (2.5 μM, 5 μM, 20 μM). […] GM6001 was confirmed to have no effect on the cell viability of either CD34+ADAM8+ cells or CD34+ADAM8− cells, at a concentration of 2.5 μM.

CD34+ADAM8- cells = test: Cell viability assay with GM6001, CD34+ADAM8- cells; conditions: GM6001 2.5 μM; FIG. 20
Description: as §1, §2

[1] = test system: CD34+ADAM8+ cells (CML-CP9- and CML-CP23-derived); test: Cell viability assay with imatinib plus GM6001; conditions: 1.0 μM imatinib and 2.5 μM GM6001 vs 1.0 μM imatinib alone; FIG. 21, 22
Description: as §1

CML-pre-HPCs = test: Apoptosis assay in hematopoietic differentiation of CML-iPSCs; conditions: 5 μM imatinib, 48 hours from medium exchange; FIG. 5
[2] = test system: CD34+ADAM8+ CML cells of CML-CP patient; test: Cell viability assay of CD34+ADAM8+ and CD34+ADAM8- cell fractions with imatinib; conditions: 48 hours exposure to imatinib; FIG. 11
Description: as §1

[3] = test system: CD34+ADAM8+ CML cells of CML-CP patient; test: Apoptosis assay of CD34+ADAM8+ and CD34+ADAM8- cell fractions with imatinib; conditions: 48 hours exposure to imatinib; FIG. 12
Description: as §1

[4] = test system: mRNA transcribed from the ADAM8 gene in HL60AML cell line; test: ADAM8 gene expression inhibition by shRNA (mRNA amount); conditions: HL60, lentiviral shRNA, 72 hours puromycin selection; non-target_shRNA defined as 1; FIG. 18
Description: After extraction of total RNA with RNAeasy reagent (QIAGEN), reverse transcription was performed with ReverTra Ace qPCR RT Master Mix (TOYOBO). The primer sequences used for PCR are shown below. Real-time quantitative PCRs were carried out in ABI-7000 Sequencing System with THUNDERBIRD SYBR qPCR Mix, following the manufacturer's instructions (TOYOBO). Each assay was performed in triplicate. 18S rRNA and β-actin were used as endogenous controls.
The amount of mRNA transcribed from the ADAM8 gene in the cells was measured after treatment of an HL60AML cell line with ADAM8_shRNA 1 (SEQ ID NO: 45), ADAM8_shRNA 2 (SEQ ID NO: 46) and ADAM8_shRNA_3 (SEQ ID NO: 47). The target sequences of ADAM8_shRNA_1, ADAM8_shRNA_2 and ADAM8_shRNA_3 are listed as SEQ ID NO: 49, 50 and 51, respectively. Specifically, pLKO.1-puro-CMV-tGFP (Sigma Aldrich Japan) incorporating DNA encoding shRNA was transferred into HEK293 cells together with pMISSION GAG POL (Sigma Aldrich Japan) and pMISSION VSV-G (Sigma Aldrich Japan), to obtain an shRNA-expressing lentivirus. The obtained lentivirus was used to infect HL60, 1 μg/ml puromycin was used for 72 hours of selection, and ADAM8 gene expression in the selected cells was analyzed. The expression level of the ADAM8 gene when using non-target_shRNA that targets a non-ADAM8 gene (SEQ ID NO: 48, target sequence: SEQ ID NO: 52) (indicated as “non-target” in the graph) was defined as 1.

Molecule: CNC(=O)[C@H](Cc1c[nH]c2ccccc12)NC(=O)[C@@H](CC(=O)NO)CC(C)C [GM6001, (2R)—N^4-Hydroxy-N^1-[(1S)-2-(1H-indol-3-ylmethyl)-2-(methylamino)-2-oxoethyl]-2-(2-methylpropyl)butanediamide]
- effect on cell viability of CD34+ADAM8+ cells (CD34+ADAM8+ cells): no effect
- effect on cell viability of CD34+ADAM8- cells (CD34+ADAM8- cells): no effect
- TKI resistance (cell viability) on inhibition of ADAM8 activity [1]: TKI resistance is lowered

Molecule: Cc1ccc(NC(=O)c2ccc(CN3CCN(C)CC3)cc2)cc1Nc1nccc(-c2cccnc2)n1 [imatinib]
- apoptosis induction in CML-pre-HPCs (CML-pre-HPCs): not induced to undergo apoptosis
- imatinib resistance (cell viability) of ADAM8+ CML cells compared to ADAM8- CML cells [2]: greater imatinib resistance
- apoptosis induced by imatinib in ADAM8+ CML cells compared to ADAM8- CML cells [3]: suppressed

Molecule: ADAM8_shRNA_1: shRNA that inhibits expression of the ADAM8 gene, SEQ ID NO: 45, target sequence SEQ ID NO: 49 (CCGGGGACAAGCUAUAUCAGAAACUCUCGAGAGUUUCUGAUAUAGCUUGUCCUUUUU)
- knockdown of ADAM8 gene expression (mRNA) [4]: confirmed to have the ability to knockdown ADAM8

Molecule: ADAM8_shRNA_2: shRNA that inhibits expression of the ADAM8 gene, SEQ ID NO: 46, target sequence SEQ ID NO: 50 (CCGGGGGCCUGGAGAUUUGGAAUAGCUCGAGCUAUUCCAAAUCUCCAGGCCCUUUUU)
- knockdown of ADAM8 gene expression (mRNA) [4]: confirmed to have the ability to knockdown ADAM8

Molecule: ADAM8_shRNA_3: shRNA that inhibits expression of the ADAM8 gene, SEQ ID NO: 47, target sequence SEQ ID NO: 51 (CCGGGGAAUAGUCAGGACAGGUUCCCUCGAGGGAACCUGUCCUGACUAUUCCUUUUU)
- knockdown of ADAM8 gene expression (mRNA) [4]: confirmed to have the ability to knockdown ADAM8
